Experimental data reported in EP4603105A1, “PHARMACEUTICAL COMPOSITION CONTAINING CYCLIC COMPOUND HAVING SELECTIVE KRAS INHIBITORY EFFECT AGAINST HRAS AND NRAS” (CHUGAI SEIYAKU KABUSHIKI KAISHA, priority 2022, dated 2024).
Read-outs that look alike come from different tables or passages of the source.

Experiments:
[1] = molecular target: GDP-bound NRAS wild-type protein (Homo sapiens, UniProt P01111); experiment: Binding to NRAS by surface plasmon resonance (SPR), KD and KD ratio to KRAS
Procedure, shortened: (§1)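 Measured at 30°C: SPR with GDP-loaded, E. coli-expressed biotin-Avi RAS captured (~100–300 RU), ascending 75 s compound injections, HBS pH 7.4 with GDP, MgCl2, 4% DMSO. KD from 1:1 fit.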

[2] = molecular target: GDP-bound KRAS wild-type protein (Homo sapiens, UniProt P01116); experiment: Binding to KRAS by surface plasmon resonance (SPR), dissociation constant KD
Procedure, shortened: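 GDP-loaded biotinylated Avi-tag RAS proteins (E. coli-expressed) captured on a Biotin CAPture chip at ~100–300 RU; single-cycle kinetics at 30°C, 100 µL/min, 75 s injections of rising compound concentrations. HBS pH 7.4 running buffer with 1 mM DTT, 10 mM MgCl2, 10 µM GDP, 4% DMSO. KD from 1:1 binding fit.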

[3] = system: human lung cancer strain NCI-H441; experiment: NCI-H441 cell proliferation inhibitory activity (CellTiter-Glo, 4 days); format: cell-based; conditions: read-out: NCl-H441 IC50
Procedure, shortened: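 Signal came from […] measured per well once the reagent was added. Beforehand, cells were cultured at 37°C and 5% carbon dioxide on a compound series serially diluted in dimethyl sulfoxide.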

[4] = molecular target: HRAS wild-type protein (Homo sapiens, UniProt P01112); experiment: Binding to HRAS by surface plasmon resonance (SPR), KD and KD ratio to KRAS
Procedure, shortened: as §1

[5] = ratio of KD with respect to GDP-bound NRAS wild-type protein to KD with respect to KRAS
[6] = Single Cycle Kinetics, 1:1 binding model
[7] = 50% proliferation inhibitory concentration, four days
[8] = ratio of KD with respect to HRAS wild-type protein to KD with respect to KRAS
[9] = ratio of KD for GDP-bound NRAS wild-type protein to KD for KRAS
[10] = ratio of KD for HRAS wild-type protein to KD for KRAS

Chain of GDP-bound KRAS wild-type protein (P01116 1-188 isoform P01116-2): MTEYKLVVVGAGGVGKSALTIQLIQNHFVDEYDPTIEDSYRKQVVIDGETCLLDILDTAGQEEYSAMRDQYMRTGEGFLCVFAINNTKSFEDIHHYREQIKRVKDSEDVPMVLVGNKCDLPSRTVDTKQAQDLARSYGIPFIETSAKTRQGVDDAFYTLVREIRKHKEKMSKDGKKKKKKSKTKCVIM
Chain of HRAS wild-type protein (P01112 whole entry): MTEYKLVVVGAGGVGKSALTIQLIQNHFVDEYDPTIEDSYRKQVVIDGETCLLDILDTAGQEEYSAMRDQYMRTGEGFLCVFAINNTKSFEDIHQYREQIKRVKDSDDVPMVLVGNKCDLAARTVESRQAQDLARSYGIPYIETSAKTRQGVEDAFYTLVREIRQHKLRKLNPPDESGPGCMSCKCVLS
Chain of GDP-bound NRAS wild-type protein (P01111 whole entry): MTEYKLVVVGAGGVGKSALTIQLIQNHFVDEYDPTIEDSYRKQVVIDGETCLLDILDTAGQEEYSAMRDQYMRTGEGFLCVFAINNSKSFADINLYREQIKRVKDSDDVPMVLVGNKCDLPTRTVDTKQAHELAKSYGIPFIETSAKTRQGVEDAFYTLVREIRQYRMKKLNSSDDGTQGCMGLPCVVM

SMILES | Kd [2, 6] [nM] | IC50 [3, 7] [nM] | Kd ([2]; 1:1 binding model) [nM] | IC50 ([3]; NCI-H441 cells, 4 days) [nM] | Kd ([2]; Single Cycle Kinetics) [nM] | NRAS /KRAS [1, 5] | HRAS /KRAS [4, 8] | NRAS /KRAS [1, 9] | HRAS /KRAS [4, 10]
CCO[C@@H]1C[C@H]2C(=O)NC3(CC(C)(C)C3)C(=O)N(C)[C@@H](C(CC)CC)C(=O)N(C)[C@H](C(=O)N(C)C)CC(=O)N(C)[C@@H](CC3CC3)C(=O)N[C@@H]([C@@H](C)CC)C(=O)N(C)CC(=O)N(C)[C@H]3C/C=C\CCN(C3=O)[C@@H](CC3CCC(F)(F)CC3)C(=O)N(C)CC(=O)N[C@@H](CCc3cc(F)c(C(F)(F)F)c(F)c3)C(=O)N2C1 [PP2485] |  |  | 0.78 | 55.5 |  |  |  | A (a compound having 10 or more and less than 20 is denoted as A) | A (a compound having 10 or more and less than 20 is denoted as A)
CC[C@H](C)[C@@H]1NC(=O)[C@H](CC)N(C)C(=O)C[C@@H](C(=O)N(C)C)N(C)C(=O)[C@H](C2CCCC2)N(C)C(=O)C2(CCC2)NC(=O)[C@@H]2C[C@@H](C(F)(F)F)CN2C(=O)[C@H](CCc2cc(F)c(C(F)(F)F)c(F)c2)NC(=O)CN(C)C(=O)[C@H](Cc2ccc(C(F)(F)F)cc2)N2CC/C=C\C[C@@H](C2=O)N(C)C(=O)CN(C)C1=O [PP1133] | 0.05 | 16.5 |  |  |  | A (a compound having 10 or more and less than 20 is denoted as A) | A (a compound having 10 or more and less than 20 is denoted as A) |  | 
CCC[C@H]1C(=O)N[C@@H]([C@@H](C)CC)C(=O)N2CCC[C@H]2C(=O)N(C)[C@H]2C/C=C\CCN(C2=O)[C@@H](Cc2ccc(C(F)(F)F)cc2)C(=O)N(C)CC(=O)N[C@@H](CCc2ccc(C(F)(F)F)c(OC)c2)C(=O)N2C[C@@H](C)C[C@H]2C(=O)N(C)C2(CCC2)C(=O)N(C)[C@@H](C2CCCC2)C(=O)N(C)[C@H](C(=O)N(C)C)CC(=O)N1C [PP2362] |  |  | 0.076 | 4.8 |  |  |  | A (a compound having 10 or more and less than 20 is denoted as A) | A (a compound having 10 or more and less than 20 is denoted as A)
CCC[C@H]1C(=O)N[C@@H](C2CCCC2)C(=O)N(C)CC(=O)N(C)[C@H]2C/C=C\CCN(C2=O)[C@@H](Cc2ccc(C(F)(F)F)cc2)C(=O)N(C)CC(=O)N[C@@H](CCc2ccc(C(F)(F)F)c(OC)c2)C(=O)N2CC3(CC3)C[C@H]2C(=O)N(C)C2(CCC2)C(=O)N(C)[C@@H](CC(C)(C)C)C(=O)N(C)[C@H](C(=O)N(C)C)CC(=O)N1C [PP3317] |  |  |  | 2.5 | 0.069 |  |  | B (a compound having 3 or more and less than 10 is denoted as B) | B (a compound having 3 or more and less than 10 is denoted as B)
CCC[C@H]1C(=O)N[C@@H]([C@@H](C)CC)C(=O)N(C2CC2)CC(=O)N(C)[C@H]2C/C=C\CCN(C2=O)[C@@H](CC2CCC(F)(F)CC2)C(=O)N(C)CC(=O)N[C@@H](CCc2ccc(C(F)(F)F)c(OC)c2)C(=O)N2C[C@@H](C)C[C@H]2C(=O)N(C)C2(CCC2)C(=O)N(C)[C@@H](C2CCCC2)C(=O)N(C)[C@H](C(=O)N(C)C)CC(=O)N1C [PP2378] |  |  | 0.88 | 48.3 |  |  |  | B (a compound having 3 or more and less than 10 is denoted as B) | A (a compound having 10 or more and less than 20 is denoted as A)
CCO[C@@H]1C[C@H]2C(=O)NC3(CCC3)C(=O)N(C)[C@@H](C3CCCC3)C(=O)N(C)[C@H](C(=O)N(C)C)CC(=O)N(C)[C@@H](Cc3ccc(C#N)cc3)C(=O)N[C@@H]([C@@H](C)CC)C(=O)N(C)CC(=O)N(C)[C@H]3CCCCCN(C3=O)[C@@H](Cc3ccc(C(F)(F)F)cc3)C(=O)N(C)CC(=O)N[C@@H](CCc3cc(F)c(C(F)(F)F)c(F)c3)C(=O)N2C1 [PP1173] | 0.18 | 70.8 |  |  |  | B (a compound having 3 or more and less than 10 is denoted as B) | B (a compound having 3 or more and less than 10 is denoted as B) |  | 
CCC[C@H]1C(=O)N[C@@H]([C@@H](C)CC)C(=O)N(C)CC(=O)N(C)[C@H]2C/C=C\CCN(C2=O)[C@@H](Cc2ccc(C(F)(F)F)cc2)C(=O)N(C)CC(=O)N[C@@H](CCc2ccc(C(F)(F)F)c(OC)c2)C(=O)N2C[C@H](OCC)C[C@H]2C(=O)N(C)C2(CCC2)C(=O)N(C)[C@@H](C(CC)CC)C(=O)N(C)[C@H](C(=O)N(C)C)CC(=O)N1C [PP2382] |  |  | 0.12 | 4.6 |  |  |  | A (a compound having 10 or more and less than 20 is denoted as A) | A (a compound having 10 or more and less than 20 is denoted as A)
CCO[C@@H]1C[C@H]2C(=O)NC3(CCC3)C(=O)N(C)[C@@H](C3CCCC3)C(=O)N(C)[C@H](C(=O)N(C)C)CC(=O)N(C)[C@@H](COC3CC3)C(=O)N[C@@H]([C@@H](C)CC)C(=O)N(C)CC(=O)N(C)[C@H]3C/C=C\CCN(C3=O)[C@@H](Cc3ccc(C(F)(F)F)cc3)C(=O)N(C)CC(=O)N[C@@H](CCc3cc(F)c(C(F)(F)F)c(F)c3)C(=O)N2C1 [PP1268] | 0.045 | 12.1 |  |  |  | A (a compound having 10 or more and less than 20 is denoted as A) | A (a compound having 10 or more and less than 20 is denoted as A) |  | 
CCC[C@H]1C(=O)N[C@@H]([C@@H](C)CC)C(=O)N(C)CC(=O)N(C)[C@H]2C/C=C\CCN(C2=O)[C@@H](Cc2ccc(C(F)(F)F)cc2)C(=O)N(C)CC(=O)N[C@@H](CCc2cc(F)c(C(F)(F)F)c(F)c2)C(=O)N2CC3(CC3)C[C@H]2C(=O)NC2(CCC2)C(=O)N(C)[C@@H](CC(C)(C)C)C(=O)N(C)[C@H](C(=O)N(C)C)CC(=O)N1C [PP3406] |  |  |  | 5.7 | 0.035 |  |  | A (a compound having 10 or more and less than 20 is denoted as A) | B (a compound having 3 or more and less than 10 is denoted as B)

Second part, led by results:

Kd [2, 6] [nM] | IC50 [3, 7] [nM] | Kd ([2]; 1:1 binding model) [nM] | IC50 ([3]; NCI-H441 cells, 4 days) [nM] | Kd ([2]; Single Cycle Kinetics) [nM] | SMILES | NRAS /KRAS [1, 5] | HRAS /KRAS [4, 8] | NRAS /KRAS [1, 9] | HRAS /KRAS [4, 10]
0.45 | 76.4 |  |  |  | CCO[C@@H]1C[C@H]2C(=O)NC3(CCC3)C(=O)N(C)[C@@H](C3CCCC3)C(=O)N(C)[C@H](C(=O)N(C)C)CC(=O)N(C)[C@@H](CC(C)C)C(=O)N[C@@H]([C@@H](C)CC)C(=O)N(C)CC(=O)N(C)[C@H]3C/C=C\CCN(C3=O)[C@@H](Cc3ccc(F)cc3)C(=O)N(C)CC(=O)N[C@@H](CCc3ccc(Cl)c(Cl)c3)C(=O)N2C1 [PP1482] | A (a compound having 10 or more and less than 20 is denoted as A) | B (a compound having 3 or more and less than 10 is denoted as B) |  | 
 |  |  | 12.5 | 0.21 | C#CC[C@H]1C(=O)N[C@@H]([C@@H](C)CC)C(=O)N(C)CC(=O)N(C)[C@H]2C/C=C\CCN(C2=O)[C@@H](Cc2ccc(C(F)(F)F)cc2)C(=O)N(C)CC(=O)N[C@@H](CCc2ccc(C(F)(F)F)c(OC)c2)C(=O)N2C[C@H](OCC)C[C@H]2C(=O)OC2(CCC2)C(=O)N(C)[C@@H](C2CCCC2)C(=O)N(C)[C@H](C(=O)N(C)C)CC(=O)N1C [PP3373] |  |  | A (a compound having 10 or more and less than 20 is denoted as A) | A (a compound having 10 or more and less than 20 is denoted as A)
 |  | 0.91 | 103 |  | CCC[C@H]1C(=O)N[C@@H]([C@@H](C)CC)C(=O)N(C2CC2)CC(=O)N(C)[C@H]2C/C=C\CCN(C2=O)[C@@H](Cc2ccc(C)cc2)C(=O)N(C)CC(=O)N[C@@H](CCc2ccc(Cl)c(Cl)c2)C(=O)N2C[C@H](OCC)C[C@H]2C(=O)NC2(CC(C)(C)C2)C(=O)N(C)[C@@H](C2CCCC2)C(=O)N(C)[C@H](C(=O)N(C)C)CC(=O)N1C [PP2559] |  |  | A (a compound having 10 or more and less than 20 is denoted as A) | A (a compound having 10 or more and less than 20 is denoted as A)
 |  | 0.065 | 7.9 |  | CC[C@H](C)[C@@H]1NC(=O)[C@H](COC)N(C)C(=O)C[C@@H](C(=O)N(C)C)N(C)C(=O)[C@H](C2CCCC2)N(C)C(=O)C2(CC(C)(C)C2)NC(=O)[C@@H]2C[C@H](C)CN2C(=O)[C@H](CCc2ccc(C(F)(F)F)c(Cl)c2)NC(=O)CN(C)C(=O)[C@H](Cc2ccc(C)cc2)N2CC/C=C\C[C@@H](C2=O)N(C)C(=O)CN(C)C1=O [PP2502] |  |  | A (a compound having 10 or more and less than 20 is denoted as A) | A (a compound having 10 or more and less than 20 is denoted as A)
 |  |  | 12.1 | 0.15 | CCCO[C@@H]1C[C@H]2C(=O)NC3(CC(C)(C)C3)C(=O)N(C)[C@@H](C3CCCC3)C(=O)N(C)[C@H](C(=O)N(C)CC)CC(=O)N(C)[C@@H](COCC)C(=O)N[C@@H]([C@@H](C)CC)C(=O)N(C)CC(=O)N(C)[C@H]3C/C=C\CCN(C3=O)[C@@H](Cc3ccc(C)cc3)C(=O)N(C)CC(=O)N[C@@H](CCc3cc(F)c(C(F)(F)F)c(F)c3)C(=O)N2C1 [PP3419] |  |  | A (a compound having 10 or more and less than 20 is denoted as A) | A (a compound having 10 or more and less than 20 is denoted as A)
 |  | 0.67 | 26.3 |  | CC[C@H](C)[C@@H]1NC(=O)[C@H](COC)N(C)C(=O)C[C@@H](C(=O)N2CCCCC2)N(C)C(=O)[C@H](C2CCCC2)N(C)C(=O)C2(CC(C)(C)C2)NC(=O)[C@@H]2C[C@@H](OC(C)C)CN2C(=O)[C@H](CCc2ccc(Cl)c(Cl)c2)NC(=O)CN(C)C(=O)[C@H](Cc2ccc(C(F)(F)F)cc2)N2CC/C=C\C[C@@H](C2=O)N(C)C(=O)CN(C)C1=O [PP2671] |  |  | A (a compound having 10 or more and less than 20 is denoted as A) | A (a compound having 10 or more and less than 20 is denoted as A)
